In ChEMBL document CHEMBL1764981, “Coumarin-purine ribofuranoside conjugates as new agents against hepatitis C virus” (J Med Chem, 2011):
In brackets after ≈: the same amount, converted by molar mass. Activity calls are given as the source filed them. No cut-off for these calls is given here.

Columns and labels:
[1] = Selectivity index, ratio of CC50 for human Huh5-2 cells to EC50 for Hepatitis C virus; type: toxicity, cell-based, Huh-5-2; conditions: read-out: Ratio CC50/EC50
Hepatitis C virus [2] = test: Antiviral activity against Hepatitis C virus infected in human Huh5-2 cells assessed as […] by viral RNA (luciferase) assay; type: functional, organism-based, Hepacivirus hominis; conditions: Huh-5-2
Huh-5-2 = test: Cytotoxicity against human Huh5-2 cells assessed as microscopically detectable alteration in cell morphology by cytostatic determination assay; type: functional
[3] = Solubility of compound in water by HPLC-UV method; type: physicochemical
Hepatitis C virus [4] = test: Antiviral activity against Hepatitis C virus; type: functional, organism-based; conditions: Hepacivirus hominis

| SMILES | EC50 (Hepatitis C virus [2]) [µM] | solubility [3] [mg/mL] | selectivity ratio [1] | CC50 (Huh-5-2) [µM] | Activity (Hepatitis C virus [4]) |
| --- | --- | --- | --- | --- | --- |
| CC(=O)OC[C@H]1O[C@@H](n2c(=S)n([C@@H]3O[C@H](COC(C)=O)[C@@H](OC(C)=O)[C@H]3OC(C)=O)c3ncncc32)[C@H](OC(C)=O)[C@@H]1OC(C)=O | 66 | – | > 1.1 | > 75 | inactive |
| O=c1oc2ccccc2cc1CSc1nc2cncnc2n1[C@@H]1O[C@H](CO)[C@@H](O)[C@H]1O | 5.5 | – | 9.1 | 50 | – |
| CC(=O)OC[C@H]1O[C@@H](n2c(SCc3cc4ccccc4oc3=O)nc3cncnc32)[C@H](O)[C@@H]1O | > 8.9 | – | < 0.98 | 8.7 | – |
| OC[C@H]1O[C@@H](n2c(S)nc3cncnc32)[C@H](O)[C@@H]1O | > 176 | – | – | > 176 | – |
| Cc1ccc2oc(=O)c(CSc3nc4cncnc4n3[C@@H]3O[C@H](CO)[C@@H](O)[C@H]3O)cc2c1 | 9.2 | – | 5.1 | 46 | – |
| CC(=O)OC[C@H]1O[C@@H](n2c(=S)[nH]c3cncnc32)[C@H](OC(C)=O)[C@@H]1OC(C)=O | > 122 | – | – | > 122 | inactive |
| Nc1ncnc2c1nc(SCc1cc3cc(Br)ccc3oc1=O)n2[C@@H]1O[C@H](CO)[C@@H](O)[C@H]1O | 27 | – | 1.5 | 41 | – |
| COc1cccc2cc(CSc3nc4cncnc4n3[C@@H]3O[C@H](COC(C)=O)[C@@H](O)[C@H]3O)c(=O)oc12 | 5.8 | 0.216 (≈ 421 µM) | 1.9 | 11 | – |
| COc1cccc2cc(CSc3nc4cncnc4n3[C@@H]3O[C@H](CO)[C@@H](O)[C@H]3O)c(=O)oc12 | 9.5 | 0.224 (≈ 474 µM) | 5 | 47 | – |
| CC(=O)OC[C@H]1O[C@@H](n2c(SCc3cc4cc(Br)ccc4oc3=O)nc3cncnc32)[C@H](O)[C@@H]1O | 8.3 | – | 3.8 | 31 | – |
| O=c1oc2ccc(F)cc2cc1CSc1nc2cncnc2n1[C@@H]1O[C@H](CO)[C@@H](O)[C@H]1O | 7.4 | – | 4.9 | 36 | – |
| Nc1ncnc2c1nc(SCc1cc3ccccc3oc1=O)n2[C@@H]1O[C@H](CO)[C@@H](O)[C@H]1O | 28 | – | 1.7 | 49 | – |
| O=c1oc2c(Br)cc(Br)cc2cc1CSc1nc2cncnc2n1[C@@H]1O[C@H](CO)[C@@H](O)[C@H]1O | 5.9 | – | 6.1 | 36 | – |
| COc1cccc2cc(CSc3nc4cncnc4[nH]3)c(=O)oc12 | – | 0.0316 (≈ 92.8 µM) | 4.8 | 94 | – |
| COc1cccc2cc(CSc3nc4c(N)ncnc4n3[C@@H]3O[C@H](CO)[C@@H](O)[C@H]3O)c(=O)oc12 | 43 | – | > 2.4 | > 103 | – |
| CC(=O)OC[C@H]1O[C@@H](n2c(SCc3cc4ccccc4oc3=O)nc3cncnc32)[C@H](OC(C)=O)[C@@H]1OC(C)=O | 6.6 | – | 5.9 | 39 | – |
| CC(=O)OC[C@H]1O[C@@H](n2c(SCc3cc4cc(F)ccc4oc3=O)nc3cncnc32)[C@H](OC(C)=O)[C@@H]1OC(C)=O | 6.1 | – | 1.2 | 7.6 | – |
| CC(=O)OC[C@H]1O[C@@H](n2c(SCc3cc4cc(C)ccc4oc3=O)nc3cncnc32)[C@H](OC(C)=O)[C@@H]1OC(C)=O | 7.7 | – | 2.1 | 16 | – |
| Nc1ncnc2c1nc(SCc1cc3cc(Br)cc(Br)c3oc1=O)n2[C@@H]1O[C@H](CO)[C@@H](O)[C@H]1O | 26 | – | 1.4 | 36 | – |
| CC(=O)OC[C@H]1O[C@@H](n2c(SCc3cc4cc(Br)cc(Br)c4oc3=O)nc3cncnc32)[C@H](O)[C@@H]1O | 6.8 | – | 1 | 7 | – |

The next lines start with results.

| EC50 (Hepatitis C virus [2]) [µM] | solubility [3] [mg/mL] | SMILES | selectivity ratio [1] | CC50 (Huh-5-2) [µM] | Activity (Hepatitis C virus [4]) |
| --- | --- | --- | --- | --- | --- |
| 4.6 | – | CC(=O)OC[C@H]1O[C@@H](n2c(SCc3cc4cc(C)ccc4oc3=O)nc3cncnc32)[C@H](O)[C@@H]1O | 3.5 | 16 | – |
| 2.3 | 0.0783 (≈ 131 µM) | COc1cccc2cc(CSc3nc4cncnc4n3[C@@H]3O[C@H](COC(C)=O)[C@@H](OC(C)=O)[C@H]3OC(C)=O)c(=O)oc12 | 3.3 | 7.5 | – |
| 3.8 | – | CC(=O)OC[C@H]1O[C@@H](n2c(SCc3cc4cc(F)ccc4oc3=O)nc3cncnc32)[C@H](O)[C@@H]1O | 2.3 | 8.6 | – |
| 2.1 | – | CC1(C)O[C@@H]2[C@H](O1)[C@H](n1c(SCc3cc4cc(Br)ccc4oc3=O)nc3cncnc31)O[C@@H]2CO | 3.6 | 7.5 | – |
| 4.9 | – | CC(=O)OC[C@H]1O[C@@H](n2c(SCc3cc4cc(Br)cc(Br)c4oc3=O)nc3cncnc32)[C@H](OC(C)=O)[C@@H]1OC(C)=O | 1.2 | 6 | – |
| 4.9 | – | CC(=O)OC[C@H]1O[C@@H](n2c(SCc3cc4cc(Br)ccc4oc3=O)nc3cncnc32)[C@H](OC(C)=O)[C@@H]1OC(C)=O | 1.4 | 6.7 | – |
| 2.8 | – | CC1(C)O[C@@H]2[C@H](O1)[C@H](n1c(SCc3cc4ccccc4oc3=O)nc3cncnc31)O[C@@H]2CO | 3.2 | 8.8 | – |
| 3.2 | – | CC(=O)OC[C@H]1O[C@@H](n2c(SCc3cc4cc(Cl)ccc4oc3=O)nc3cncnc32)[C@H](OC(C)=O)[C@@H]1OC(C)=O | 2.4 | 7.5 | – |
| 4.3 | – | O=c1oc2ccc(Cl)cc2cc1CSc1nc2cncnc2n1[C@@H]1O[C@H](CO)[C@@H](O)[C@H]1O | 8.5 | 37 | – |
| 1.6 | 0.0877 (≈ 171 µM) | COc1cccc2cc(CSc3nc4cncnc4n3[C@@H]3O[C@H](CO)[C@@H]4OC(C)(C)O[C@@H]43)c(=O)oc12 | 5.2 | 8.4 | – |
